# Measured values taken from patent US20060014811A1, “Medicament for treatment of cancer” (priority 2002, published 2006).
# Tests used:
# [1] = tested on: HepG2: Human liver cancer; assay: Inhibitory test against cancer cell proliferation (1), MTS method; assay type: cell-based; conditions: 50% inhibitory concentration against proliferation, cultured for 3 days
# Protocol: (§1) Cancer cells (Jurkat: Human T-cell leukemia, MIA PACA-2: Human pancreatic cancer, RD: Human rhabdomyoma, HepG2: Human liver cancer) were cultured for 3 days in the presence or absence of a test compound using RPMI1640 medium containing 10% bovine fetal serum or Dalbecco's Modified Eagle's Medium containing 10% FBS. The number of living cells was counted by MTS method, and amounts of cell proliferation were compared and inhibitory ratios were measured. In the table below, 50% inhibitory concentrations against the proliferation of each cancer cell are shown.
# RD: Human rhabdomyoma = assay: as above; assay type: cell-based; conditions: 50% inhibitory concentration against proliferation, cultured for 3 days
# Protocol: as §1
# [2] = tested on: MIA PACA-2: Human pancreatic cancer; assay: as above; assay type: cell-based; conditions: 50% inhibitory concentration against proliferation, cultured for 3 days
# Protocol: as §1
# [3] = tested on: Jurkat: Human T-cell leukemia; assay: as above; assay type: cell-based; conditions: 50% inhibitory concentration against proliferation, cultured for 3 days
# Protocol: as §1
# B16 melanoma = assay: Metastasis inhibitory test using mouse bearing B16 melanoma; assay type: in vivo, B6 mouse; set-up: key to Colony Formation (melanoma colonies in the lungs vs control): ±: Same as control; +: Inhibited; ++: Remarkably inhibited; +++: No Formation; conditions: 30 mg/kg intraperitoneal once a day for 5 weeks, B16 melanoma cells inoculated by tail vein
# Protocol: B16 melanoma cells (5×10^5 cells/mouse) were inoculated from a tail vein of a B6 mouse of the same kind by intravenous injection, and a test substance was administered once a day for 5 weeks from the day of the inoculation by intraperitoneal injection. Then, the test animal was sacrificed and the lungs were removed. The number of colonies of melanoma in the lungs was compared with that in the control (test substance administered at 0 mg/kg).
# [4] = tested on: HepG2: Human liver cancer; assay: Inhibitory test against cancer cell proliferation (3); assay type: cell-based; conditions: Test Example 6, 50% inhibitory concentration against proliferation, similar operations to Test Example 1
# Protocol: as §1
# (§2) Similar operations to Test Example 1 were carried out using cancer cells (HepG2: human liver cancer, A^549: human lung cancer, MIA PACA-2: human pancreatic cancer). In the table below, 50% inhibitory concentrations against proliferation of each cancer cell are shown.
# [5] = tested on: MIA PACA-2: Human pancreatic cancer; assay: as above; assay type: cell-based; conditions: Test Example 6, 50% inhibitory concentration against proliferation, similar operations to Test Example 1
# Protocol: as §1, §2
# A549: human lung cancer = assay: as above; assay type: cell-based; conditions: Test Example 6, 50% inhibitory concentration against proliferation, similar operations to Test Example 1
# Protocol: as §1, §2
"IC50 ([4]; Homo sapiens, HepG2) [µM]","IC50 ([5]; Homo sapiens, MIA PaCa-2) [µM]","IC50 (A549: human lung cancer; Homo sapiens, A549) [µM]",SMILES,"IC50 ([1]; Homo sapiens, HepG2, 72 h) [µM]","IC50 (RD: Human rhabdomyoma; Homo sapiens, 72 h) [µM]","IC50 ([2]; Homo sapiens, MIA PaCa-2, 72 h) [µM]","IC50 ([3]; Homo sapiens, Jurkat, 72 h) [µM]",other results
,,,"O=C(Nc1cc(C(F)(F)F)cc(C(F)(F)F)c1)c1cc(Cl)ccc1O [compound 4, N-[3,5-bis(trifluoromethylphenyl)]-5-chloro-2-hydroxybenzamide]",,,,,IC50 [1]: 0.69 µM; IC50 (RD: Human rhabdomyoma): 1.03 µM; IC50 [2]: 0.65 µM; IC50 [3]: 0.74 µM; Colony Formation (melanoma colonies in the lungs vs control) (B16 melanoma): ++; Survival Ratio after 5 weeks(%) (B16 melanoma; control 50%): 100%; IC50 [4]: 0.72 µM; IC50 [5]: 0.82 µM; IC50 (A549: human lung cancer): 4.03 µM
,,,"CC(C)(C)c1ccc(O)c(C(=O)Nc2cc(C(F)(F)F)cc(C(F)(F)F)c2)c1 [compound 11, N-[3,5-Bis(trifluoromethyl)phenyl]-5-[(1,1-dimethyl)ethyl]-2-hydroxybenzamide]",1.82,1.96,0.78,1.21,
,,,O=C(Nc1cc(C(F)(F)F)cc(C(F)(F)F)c1)c1cc(-n2cccc2)ccc1O [compound 27],,,,,IC50 [1]: 1.96 µM; IC50 (RD: Human rhabdomyoma): 1.26 µM; IC50 [2]: 1.19 µM; IC50 [3]: 1.2 µM
,,,"O=C(Nc1cc(C(F)(F)F)cc(C(F)(F)F)c1)c1cc(C(=O)N2CCC(Cc3ccccc3)CC2)ccc1O [compound 40, N-[3,5-Bis(trifluoromethyl)phenyl]-2-hydroxy-5-(4-benzylpiperidine-1-carbonyl)benzamide]",,,,,melting point: 179 to 180 °C
,,,"CC(=O)Oc1ccccc1C(=O)Nc1cc(Cl)cc(Cl)c1 [compound 120, 2-acetoxy-N-(3,5-dichlorophenyl)benzamide]",,,,,melting point: 218 to 219 °C
4.23,> 10,> 10,"CC(C)(C)c1nc(NC(=O)c2cc(Br)ccc2O)sc1N1CCOCC1 [compound 205, 5-Bromo-N-{4-[(1,1-dimethyl)ethyl]-5-morpholinothiazol-2-yl}-2-hydroxybenzamide]",3.5,1.94,1.45,1.89,
,,,"CC(C)(C)c1nc(NC(=O)c2cc(Br)ccc2O)sc1N1CCN(c2ccccc2)CC1 [compound 207, 5-Bromo-N-{4-[(1,1-dimethyl)ethyl]-5-(4-phenylpiperazin-1-yl)thiazol-2-yl}-2-hydroxybenzamide]",1.76,1.52,1.26,1.64,
4.98,2.76,8.31,"O=C(Nc1nc(-c2ccccc2)c(C(=O)c2ccccc2)s1)c1cc(Br)ccc1O [compound 215, 5-Bromo-N-(5-benzoyl-4-phenylthiazol-2-yl)-2-hydroxybenzamide]",,,,,

SMILES,"IC50 ([4]; Homo sapiens, HepG2) [µM]","IC50 ([5]; Homo sapiens, MIA PaCa-2) [µM]","IC50 (A549: human lung cancer; Homo sapiens, A549) [µM]","IC50 ([1]; Homo sapiens, HepG2, 72 h) [µM]","IC50 (RD: Human rhabdomyoma; Homo sapiens, 72 h) [µM]","IC50 ([2]; Homo sapiens, MIA PaCa-2, 72 h) [µM]","IC50 ([3]; Homo sapiens, Jurkat, 72 h) [µM]",other results
"CC(C)(C)C(=O)c1sc(NC(=O)c2cc(Cl)ccc2O)nc1C(C)(C)C [compound 199, 5-Chloro-N-{4-[(1,1-dimethyl)ethyl]-5-[(2,2-dimethyl)propionyl]thiazol-2-yl}-2-hydroxybenzamide]",0.59,0.56,5.15,1.26,0.57,0.46,0.44,
